TGI and GI50 data for twelve compounds are collected here from PubChem BioAssay (NCI).

Holding throughout (assay): growth of human tumour cells (NCI), 48 h
In assay [1] the test system is LXFL 529 NSCLC.
The test system of assay [2] is SF-268 CNS.
Assay [3] deals with UO-31 renal.
In assay [4] the test system is SK-MEL-28 melanoma.
Assay [5] deals with M19-MEL melanoma.
Assay [6] relates to MALME-3M melanoma.
Assay [7] concerns A498 renal.
The test system of assay [8] is MDA-MB-231 breast.
Assay [9] concerns MDA-MB-435.
Assay [10] has as its system HOP-62 NSCLC.

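48-hour exposure; five concentrations; linearly interpolated endpoints. The concentration for 50% growth inhibition is given as GI50. At the TGI there is no net growth.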

Take `CC(Nc1ccc(S(=O)(=O)N=C(N)N)cc1)c1c2ccccc2nc2ccccc12` (centres undefined): the TGI in assay [1] was 80.6 µM; in assay [2] it was > 100 µM; in [3], 65.6 µM; in assay [4], > 100 µM; in assay [5], > 100 µM; in assay [6], 65.6 µM.

For the compound `N=c1ccn(O)cc1/C=C1/C(=O)Nc2ccccc21`, the GI50 in assay [7], in [2], in assay [3], in [4], in [8] and in [9] was > 100000 nM throughout. Besides, the GI50 in assay [10] and in assay [6] was > 100000 nM in each case. In addition, the TGI in assay [7], in assay [2], in [3], in assay [4], in assay [8] and in [9] was > 100 µM each time. In addition, the TGI in assay [10] and in assay [6] was > 100 µM in each case.

With `Nc1nc2c(ncn2C2C=CC(CO)C2)c(=O)[nH]1` (centres undefined), the TGI in assay [7], in [2], in assay [3], in assay [4], in assay [8] and in [9] was > 100 µM in each case. The TGI in assay [10] and in assay [6] was > 100 µM in each case.

Take `COc1ccc2ccccc2c1C1NC(=O)c2ccccc2N1` (centres undefined): the TGI in [7] was 8.42 µM; in assay [2] it was > 100 µM; in [3] it was 71.2 µM; in assay [4], > 100 µM; in assay [8], > 41.8 µM; in [9], 0.461 µM. Further, the TGI in [10] and in assay [6] was > 100 µM in each case.

Take `CC(=O)C1C(c2ccc(N(C)C)cc2)c2cc3c(cc2OC1(C)O)OCO3` (centres undefined): the TGI in assay [3], in assay [4], in assay [5], in assay [10] and in assay [6] was > 100 µM throughout.

Consider `NCC1OC(n2cnc3c(N)ncnc32)CC1O` (centres undefined), for which the TGI in assay [7], in [2], in assay [3], in assay [4], in [8] and in assay [9] was > 100 µM each time. Further, the TGI in assay [10] and in assay [6] was > 100 µM in each case.

For `COc1cccc(NC(=O)c2sc3nc(C)c(C(O)c4ccccc4)cc3c2N)c1` (centres undefined), the GI50 is 97.1 nM in [7]; 1050 nM in assay [2]; 850 nM in assay [3]; 3650 nM in assay [4]; 345 nM in assay [8]; 25.1 nM in [9]. Moreover, the GI50 in assay [10] was 481 nM; in [6], 580 nM. In addition, the TGI came to 0.615 µM in assay [7]; 30.9 µM in [2]; 18.9 µM in [3]; 35.3 µM in assay [4]; 33.5 µM in [8]; 0.0751 µM in assay [9]. Besides, the TGI in assay [10] turned out to be 26.2 µM; in assay [6], 27.4 µM.

Turning to `Cc1cc(N2CCOCC2)nc(N[C@@H]2CCC[C@H](Nc3ccnc4cc(Cl)ccc34)C2)n1`, the GI50 in [7] is 1570 nM; in assay [2], 1590 nM; in assay [3], 1290 nM; in [4], 2010 nM; in [8] it was 1700 nM; in assay [9], 1860 nM. Further, the GI50 in assay [10] is 1730 nM; in assay [6], 1950 nM. Besides, the TGI is 4.4 µM in assay [7]; 4.44 µM in assay [2]; 2.63 µM in [3]; 3.8 µM in [4]; 3.58 µM in assay [8]; 3.39 µM in [9]. Moreover, the TGI in assay [10] stood at 4.36 µM; in [6], 3.67 µM.

With `COCc1cc(C(=O)Nc2cc([C@H]3CC[C@@H](OC(=O)NC(C)C)C3)[nH]n2)n(C)n1`, the GI50 is 11400 nM in assay [7]; 12100 nM in assay [2]; 16000 nM in assay [3]; 14900 nM in assay [4]; 16600 nM in assay [8]; 16100 nM in assay [9]. In addition, the GI50 was 8600 nM in assay [10] and 24200 nM in assay [6]. The TGI was 34.5 µM in [7]; 50.5 µM in assay [2]; 58.6 µM in assay [3]; 85 µM in assay [4]; 91.1 µM in assay [8]; > 100 µM in assay [9]. Moreover, the TGI in assay [10] amounted to 88.4 µM; in [6], 74.1 µM.

Take `COc1cc(-c2cc(O)c(-c3ccc4ccccc4n3)c(=O)[nH]2)cc(OC)c1OC`: the TGI in [7] was > 100 µM; in assay [2], > 80.5 µM; in [3] it was > 100 µM; in [4], > 100 µM; in [8], > 70.2 µM; in [9], 11.6 µM. The TGI in assay [10] is > 90.4 µM; in assay [6], > 54.8 µM.

Regarding `CC(=O)C1=C(O)C=C2Oc3c(C(=O)/C=C/c4c(Cl)cccc4Cl)c(O)c(C)c(O)c3[C@]2(C)C1=O`, the GI50 in assay [7] was 1600 nM; in assay [2], 856 nM; in assay [3], 1920 nM; in assay [4], 1320 nM; in assay [8], 1300 nM; in assay [9], 1810 nM. The GI50 in assay [10] is 1580 nM; in [6] it was 2100 nM. For the same compound, the TGI was 3.66 µM in assay [7]; 3.73 µM in assay [2]; 7.59 µM in assay [3]; 3.83 µM in assay [4]; 5.72 µM in assay [8]; 3.82 µM in assay [9]. The TGI in [10] came to 5.08 µM; in [6], 4.96 µM.

For the compound `NCCCCCCCn1c2c(c3ccccc3c1=O)C(=O)c1ccccc1-2`, the GI50 in assay [7] was 3260 nM; in assay [2], 2100 nM; in assay [3], 1290 nM; in assay [4] it was 1750 nM; in assay [8], 1850 nM; in [9], 1980 nM. Also, the GI50 in [10] is 1360 nM; in assay [6] it was 1980 nM. Besides, the TGI in assay [7] amounted to 11.8 µM; in [2], 6.34 µM; in assay [3], 2.73 µM; in [4] it was 3.23 µM; in [8] it was 3.79 µM; in [9], 4.06 µM. For the same compound, the TGI turned out to be 2.73 µM in [10] and 4.01 µM in assay [6].
